Consider two compounds from patent US10023611B2, “Process for the preparation of bortezomib mannitol ester” (Cipla Limited, priority 2013, dated 2018).

One data set in a line: Water solubility. The class given is physicochemical. On the procedure: Bortezomib (a boronic acid compound), in its solid state as a pure API existed in the form of highly water insoluble boroxine, a cyclic boronic acid anhydride. When placed in water, the boroxine dissociated to form equilibrium between itself and the monomeric bortezomib resulting in an apparent water solubility of about 0.5-1 mg/ml which was not sufficient for formulation purposes. In order to deal with such issues, the innovator company in their patent WO2002059130 application has described a stable formulation containing mannitol ester of bortezomib. The application '9130 also relates to a process of preparing such formulation by first dissolving the bortezomib in warm (temperature around 45±2° C.) TBA (tertiary butyl alcohol), then adding water and mannitol (1% bulking agent), followed by freeze drying. […] So, the FDA approved drug Bortezomib is now available as a mannitol boronic ester which in its reconstituted form consists of the mannitol ester in equilibrium with its hydrolysis product, the monomeric boronic acid. The drug substance exists in its cyclic anhydride from as a trimeric boroxine, as described below in FIG. 1.

The conditions of data set [1]: boroxine placed in water, equilibrium with monomeric bortezomib; cited from earlier work.

Regarding `CC(C)C[C@H](NC(=O)[C@H](Cc1ccccc1)NC(=O)c1cnccn1)B1OC(C(O)CO)C(C(O)CO)O1` (stereo in doubt) [Compound B, bortezomib-mannitol ester], the “water solubility (soluble in volumes of water)” value in the data set “Water solubility” is “around 5 volumes water”.
For the compound `CC(C)C[C@H](NC(=O)[C@H](Cc1ccccc1)NC(=O)c1cnccn1)B(O)O` [Bortezomib, [(1R)-3-methyl-1-[[(2S)-1-oxo-3-phenyl-2-[(pyrazinylcarbonyl)amino]propyl]amino]butyl] boronic acid], in data set [1], the apparent water solubility is 500 to 1000 µg/mL. In addition, in “Water solubility”, the “water solubility (in words)” value is given as “poorly water soluble”.
